# Literature values as cited in patent publication US20070292393A1, “USE OF THYMOSIN ALPHA 1 FOR PREPARING A MEDICAMENT FOR THE TREATMENT OF STAGE IV MALIGNANT MELANOMA” (SIGMA-TAU INDUSTRIE FARMACEUTICHE RIUNITE S.P.A., priority 2006, published 2007).
# Tested on: metastatic melanoma
structure (smiles),measurement,setting,value
"CN(C)/N=N/c1[nH]cnc1C(N)=O [DTIC, Dacarbazine]",effect of responses on patients' overall survival,,no evidence
same,actual overall responses to DTIC,"recent publications (J Clin Oncol, ASCO 2004)",5.5-6.8%
same,duration of responses,responses short-lived,three to six
